According to PMC6321475, “Synthesis and Evaluation of the 4-Substituted 2-Hydroxy-5-Iodochalcones and Their 7-Substituted 6-Iodoflavonol Derivatives for Inhibitory Effect on Cholinesterases and β-Secretase” (International Journal of Molecular Sciences, 2018):

Key:
Assay type in all cases: biochemical
[1] = molecular target: butyrylcholinesterase (BChE) (Homo sapiens, UniProt P06276); experiment: biochemical; conditions: for IC50: mean ± SD, three independent experiments
BChE = BChE (Homo sapiens, UniProt P06276); experiment: Kinetic study against BChE (Lineweaver-Burk and Dixon plots); conditions: for Ki: Dixon plot, substrate butyrylthiocholine iodide; for mode of inhibition of BChE: kinetic analysis
Procedure: (§1) The experiment was performed using different inhibitor (2h, 3b or 3p) concentrations (0, 2.5, 3.5 and 5 µM) and substrate (acetylthiocholine iodide (ACh) or butyrylthiocholine iodide (BCh) concentrations (0.1, 0.5, 2.5 and 5 µM). The reaction was carried out in triplicate and the absorbences were measured at 412 nm after every 1 s. A linear graph of the absorbences against time were plotted to obtain the velocity. Finally, the lineweaver burk plot (reciprocal of the velocity versus reciprocal of the subtrate concentrations) was plotted. as well as the Dixon plot (reciprocal of the velocity versus inhibitor concentration). The inhibition constant Ki, was determined by calculating the straight line equations and identifying the point at which the lines would intersect.

BACE-1 [2] = molecular target: T1, BACE-1 (Homo sapiens, UniProt P56817); experiment: In vitro BACE-1 inhibitory FRET assay; conditions: 60 min at 25 °C, pH 4.5
T1 construct: purchased Pan Vera; host or cells: baculovirus-expressed

[3] = molecular target: acetylcholinesterase (AChE) (Homo sapiens, UniProt P22303); experiment: biochemical; conditions: for IC50: mean ± SD, three independent experiments
BACE-1 [4] = molecular target: T1, BACE-1; experiment: Kinetic study against BACE-1 (Lineweaver-Burk and Dixon plots); conditions: Dixon plot intercept
Procedure: The kinetics assays were conducted according to the manufacturer’s instructions similarly to the inhibitory assay except that change in fluorescence over time was monitored at 590 nm without the addition of the stop solution. Each substrate (0.15, 0.30, 0.45 µM) and compound (0, 4, 8 and 16 µM) concentration pair were prepared in triplicate and analyzed. The Lineweaver Burk and Dixon plots were plotted as described in Section 3.7.1.

AChE = AChE (Homo sapiens, UniProt P22303); experiment: Kinetic study against AChE (Lineweaver-Burk and Dixon plots)
Procedure: as §1

T1 sequence (P56817 46-501): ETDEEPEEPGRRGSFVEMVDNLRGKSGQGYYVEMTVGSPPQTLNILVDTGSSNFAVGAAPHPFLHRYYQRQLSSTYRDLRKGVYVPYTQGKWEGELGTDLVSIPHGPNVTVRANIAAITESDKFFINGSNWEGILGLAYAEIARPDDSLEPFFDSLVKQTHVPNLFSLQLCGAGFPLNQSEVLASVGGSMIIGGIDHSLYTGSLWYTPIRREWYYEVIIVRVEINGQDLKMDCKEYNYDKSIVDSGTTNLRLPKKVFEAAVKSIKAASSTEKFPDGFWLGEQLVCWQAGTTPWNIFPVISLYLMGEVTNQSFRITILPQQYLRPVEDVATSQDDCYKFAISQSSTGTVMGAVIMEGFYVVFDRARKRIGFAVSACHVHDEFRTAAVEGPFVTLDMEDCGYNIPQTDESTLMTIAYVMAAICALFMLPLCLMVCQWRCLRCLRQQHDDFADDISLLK
acetylcholinesterase (AChE), sequence (P22303 32-614): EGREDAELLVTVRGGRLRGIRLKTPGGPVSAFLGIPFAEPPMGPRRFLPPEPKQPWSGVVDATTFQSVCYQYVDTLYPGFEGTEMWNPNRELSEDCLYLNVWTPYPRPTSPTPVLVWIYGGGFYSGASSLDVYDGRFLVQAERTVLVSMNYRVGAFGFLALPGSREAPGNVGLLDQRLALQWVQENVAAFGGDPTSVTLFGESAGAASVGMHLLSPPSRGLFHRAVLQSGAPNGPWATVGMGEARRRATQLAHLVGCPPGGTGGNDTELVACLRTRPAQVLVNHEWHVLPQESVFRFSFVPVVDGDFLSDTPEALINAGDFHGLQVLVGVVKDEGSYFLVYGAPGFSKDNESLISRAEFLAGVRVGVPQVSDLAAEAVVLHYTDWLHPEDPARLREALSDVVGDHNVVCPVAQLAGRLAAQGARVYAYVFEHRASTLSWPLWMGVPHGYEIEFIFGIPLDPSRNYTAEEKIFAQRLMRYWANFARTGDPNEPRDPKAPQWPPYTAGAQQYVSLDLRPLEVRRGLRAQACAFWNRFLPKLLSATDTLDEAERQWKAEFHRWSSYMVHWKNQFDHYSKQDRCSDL
butyrylcholinesterase (BChE), sequence (P06276 29-602): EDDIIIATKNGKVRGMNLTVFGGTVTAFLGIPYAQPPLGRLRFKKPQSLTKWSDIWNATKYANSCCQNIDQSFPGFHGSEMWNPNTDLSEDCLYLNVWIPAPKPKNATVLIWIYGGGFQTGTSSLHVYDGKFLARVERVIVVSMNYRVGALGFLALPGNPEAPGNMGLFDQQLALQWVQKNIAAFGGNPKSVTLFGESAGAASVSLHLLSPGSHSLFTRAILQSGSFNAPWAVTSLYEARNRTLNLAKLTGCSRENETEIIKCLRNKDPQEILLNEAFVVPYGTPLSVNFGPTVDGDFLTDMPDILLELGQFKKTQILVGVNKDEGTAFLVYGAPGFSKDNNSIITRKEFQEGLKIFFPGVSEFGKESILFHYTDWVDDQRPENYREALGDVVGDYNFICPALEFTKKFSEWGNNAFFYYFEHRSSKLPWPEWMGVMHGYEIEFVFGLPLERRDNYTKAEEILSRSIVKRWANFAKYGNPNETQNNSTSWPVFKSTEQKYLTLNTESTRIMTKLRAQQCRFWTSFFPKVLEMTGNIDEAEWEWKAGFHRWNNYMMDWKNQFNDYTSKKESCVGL
BChE, sequence (P06276 29-602): as above
AChE, sequence (P22303 32-614): as the sequence (P22303 32-614) above

COc1ccc(/C=C/C(=O)c2cc(I)c(Cl)cc2O)cc1 [Compound 2h, (E)-1-(4-Chloro-2-hydroxy-5-iodophenyl)-3-(4-methoxyphenyl)propenone]
SI AChE/BChE [1]: 2.81 | IC50 [1]: 4.17 ± 0.15 µM | Ki (BChE): 1.36 ± 0.17 µM | mode of inhibition of BChE (BChE): non-competitive inhibitor | IC50 (BACE-1 [2]): 13.82 ± 0.03 µM | SI BChE/AChE [3]: 0.36 | IC50 [3]: 11.72 ± 0.07 µM

O=C(/C=C/c1ccc(F)cc1)c1cc(I)c(Br)cc1O [Compound 2j, (E)-1-(4-Bromo-2-hydroxy-5-iodophenyl)-3-(4-fluorophenyl)propenone]
SI AChE/BChE [1]: 1.92 | IC50 [1]: 5.73 ± 0.05 µM | IC50 (BACE-1 [2]): 4.7 µM | Ki (BACE-1 [4]): 3.04 ± 2.31 µM | SI BChE/AChE [3]: 0.52 | IC50 [3]: 10.98 ± 0.03 µM

O=c1c(O)c(-c2ccc(F)cc2)oc2cc(F)c(I)cc12 [Compound 3b, 7-Flu.oro-2-(4-fluorophenyl)-3-hydroxy-6-iodo-4H-chromen-4-one]
Ki (AChE; Dixon plot, substrate acetylthiocholine iodide): 4.34 ± 1.1 µM | mode of inhibition of AChE (AChE; kinetic analysis): mixed type of inhibition | SI AChE/BChE [1]: 0.11 | IC50 [1]: 29.78 ± 0.04 µM | IC50 (BACE-1 [2]): 32.18 ± 0.15 µM | SI BChE/AChE [3]: 9.22 | IC50 [3]: 3.23 ± 0.02 µM

O=c1c(O)c(-c2ccc(Cl)cc2)oc2cc(F)c(I)cc12 [Compound 3c, 2-(4-C.hlorophenyl)-7-fluoro-3-hydroxy-6-iodo-4H-chromen-4-one]
SI AChE/BChE [1]: 0.09 | IC50 [1]: 37.51 ± 0.08 µM | IC50 (BACE-1 [2]): 19.69 ± 0.05 µM | SI BChE/AChE [3]: 10.8 | IC50 [3]: 3.45 ± 0.07 µM

COc1ccc(-c2oc3cc(Br)c(I)cc3c(=O)c2O)cc1 [Compound 3l, 7-Bro.mo-3-hydroxy-6-iodo-2-(4-methoxyphenyl)-4H-chromen-4-one]
IC50 (BACE-1 [2]): 15.74 ± 0.12 µM | Ki (BACE-1 [4]): 1.21 ± 0.66 µM

COc1ccc(-c2oc3cc(OC)c(I)cc3c(=O)c2O)cc1 [Compound 3p, 3-Hyd.roxy-6-iodo-7-methoxy-2-(4-methoxyphenyl)-4H-chromen-4-one]
SI AChE/BChE [1]: 2.18 | IC50 [1]: 3.29 ± 0.03 µM | Ki (BChE): 0.46 ± 0.16 µM | mode of inhibition of BChE (BChE): mixed kinetic type of inhibition | IC50 (BACE-1 [2]): 22.44 ± 0.07 µM | SI BChE/AChE [3]: 0.45 | IC50 [3]: 7.19 ± 0.02 µM
